Data as given in patent US7671181B2, “Polynucleotides encoding coccidian parasite casein kinase I, a chemotherapeutic target for antiprotozoal agents” (Merck Sharp & Dohme Corp., priority 2004, dated 2010).

What was measured:
TgCDPK1 = biological target: T1, TgCDPK1 (Toxoplasma gondii, UniProt Q9BJF5); experiment: CDPK assay with Syntide-2, T. gondii CDPK1; assay type: biochemical; conditions: 0.2 μM hymenialdisine or 1 μM purvalanol B; CKI phosphopeptide substrate
T1 construct: The TgCDPK1 open reading frame was amplified by PCR from a Toxoplasma cDNA library; made in house
Protocol: Protein kinase assays—Casein kinase activity was assayed essentially as described (Donald, R. G. K. et al., 2002, supra) using 96-well phosphocellulose plates (MAPH-NOB, Millipore; Billerica, Mass.) to capture ^33P-phosphorylated peptide or casein substrates. Kinase reactions were carried out in 40 μl volumes containing 25 mM Hepes, pH 7.4, 10 mM MgCl2, 20 mM β-glycerophosphate, 1 mM DTT, 250 μM substrate, 1 mg/mL BSA, 2 μM ATP, and 0.01 μM [γ-^33P]ATP (Perkin-Elmer, 3000 Ci/mmol). The reactions were initiated by the addition of enzyme and incubated at room temperature for 60 min. Casein (5% solution), partially dephosphorylated α-casein and β-casein were obtained from Sigma.
A variety of commercially available peptide substrates were evaluated. From Calbiochem (San Diego, Calif.): CKI substrate (RRKDLHDDEEDEAMSITA; SEQ ID NO:13); CKII substrate (RRADDSDDDDD; SEQ ID NO:14); Syntide-2 substrate (PLARTLSVAGLPGKK; SEQ ID NO:15); CaM kinase II substrate (281-291) (MHKNETVECLK; SEQ ID NO:16). From Promega: CKI substrate (DDDEESITRR; SEQ ID NO:17) and kemptide (LRRASLG; SEQ ID NO:18). From New England Biolabs (Beverly, Mass.): CKI phosphopeptide substrate (KRRRALS(p)VASLPGL; SEQ ID NO:19), and CKII substrate (RRREEETEEE; SEQ ID NO:20). PKG assays were performed with kemptide as substrate and 10 μM cGMP. CDPK was assayed with Syntide-2 substrate and in the presence of 100 μM CaCl2.
Purification of recombinant TgCDPK1 and TgPKG—The TgCDPK1 open reading frame was amplified by PCR from a Toxoplasma cDNA library, using primers based on the published sequence (Kieschnick et al., 2001, supra): sense primer, […] (SEQ ID NO:44); and, antisense primer, […] (SEQ ID NO:45). A C-terminal FLAG epitope tag was appended to the TgCDPK1 open reading frame by an additional round of PCR amplification (KOD polymerase) and the resulting DNA fragment was sub-cloned into a tubulin promoter expression vector (Donald and Liberator, 2002, supra). […]

T. gondii = experiment: Parasite growth inhibition, modified [3H]-uracil uptake assay in infected HFF cell monolayers; assay type: cell-based, Toxoplasma gondii; conditions: Toxoplasma gondii; uracil uptake assay, infected HFF cell monolayers; read-out: IC50
Description: (§1) Host cells and parasite cultures—RH strain or RH ΔHXGPRT strain tachyzoites of T. gondii were maintained by serial passage in confluent monolayers of human foreskin fibroblasts (“HFF”) as described (Roos, D. S. et al., 1994, Methods Cell Biol. 45:27-63). A modified [^3H]-uracil uptake assay (Pfefferkorn, E. R. and Pfefferkorn, L. C., 1977, J. Protozool. 24:449-453) adapted for use in 96-well scintillation plates (Cytostar-T, Amersham; Piscataway, N.J.) was used to measure parasite growth inhibition. Each well, previously seeded with HFF cells, was inoculated with T. gondii tachyzoites (2×10^4) in 200 μl of growth media containing 2 μCi [5,6]-^3H-uracil (Perkin-Elmer NEN; Boston, Mass.) and serially diluted compound. Following incubation at 37° C. for 36-48 hours, tritium-incorporation into host cell monolayers was directly counted in a microplate scintillation counter (MicroBeta, PerkinElmer-Wallac).
The only other CDK inhibitor with sub-μM activity against T. gondii was indirubin-3′-monoxime, which gave an IC50 value of 500 nM.

T. gondii tachyzoites = experiment: [3H]-uracil uptake assay of parasite growth inhibition in infected HFF cell monolayers; assay type: cell-based, Toxoplasma gondii; conditions: infected HFF cell monolayers, 36-48 hours; read-out: IC50 against T. gondii in the uracil uptake assay
Description: as §1

T1 sequence (Q9BJF5 entry or part of it): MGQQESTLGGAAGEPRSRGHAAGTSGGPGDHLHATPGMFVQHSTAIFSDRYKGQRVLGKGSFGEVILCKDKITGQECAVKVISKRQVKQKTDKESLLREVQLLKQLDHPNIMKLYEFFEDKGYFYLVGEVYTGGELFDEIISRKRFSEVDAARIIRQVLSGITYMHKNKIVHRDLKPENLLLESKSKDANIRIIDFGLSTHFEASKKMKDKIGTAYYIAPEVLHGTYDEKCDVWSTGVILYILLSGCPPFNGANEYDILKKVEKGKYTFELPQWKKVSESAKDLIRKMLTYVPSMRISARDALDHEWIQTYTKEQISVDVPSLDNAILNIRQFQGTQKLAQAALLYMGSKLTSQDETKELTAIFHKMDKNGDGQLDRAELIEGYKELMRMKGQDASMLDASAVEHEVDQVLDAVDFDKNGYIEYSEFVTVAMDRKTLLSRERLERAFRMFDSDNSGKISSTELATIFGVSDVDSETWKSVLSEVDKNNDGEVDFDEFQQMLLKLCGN

## CC(C)[C@H](CO)Nc1nc(Nc2ccc(C(=O)O)c(Cl)c2)c2ncn(C(C)C)c2n1 [purvalanol B]
TgCDPK1
  sensitivity of phosphopeptide kinase activity of fractions 14 and 15 (TgCDPK1): partial sensitivity
T. gondii
  IC50: 260 nM
T. gondii tachyzoites
  IC50: 260 nM
